In the NIST ThermoML archive (doi:10.1016/j.tca.2015.06.017):

Assay: xn = mol fraction of the nth substance listed
Conditions: Liquid, Vibrating tube method

CCC(C)Cl (stereo unspecified) [2-chlorobutane] + CCCCCCC
mass density [kg/m3]
Conditions | 303.15 K | 313.15 K
100 kPa, x2 = 0.0524 | 847.91 | 836.56
100 kPa, x2 = 0.1018 | 835.49 | 824.33
100 kPa, x2 = 0.1968 | 813.06 | 802.22
100 kPa, x2 = 0.3006 | 790.36 | 779.88
100 kPa, x2 = 0.4029 | 769.73 | 759.54
100 kPa, x2 = 0.5017 | 751.19 | 741.34
100 kPa, x2 = 0.6008 | 733.91 | 724.36
100 kPa, x2 = 0.7023 | 717.52 | 708.18
100 kPa, x2 = 0.7977 | 703.14 | 694.03
100 kPa, x2 = 0.8986 | 688.99 | 680.16
100 kPa, x2 = 0.952 | 681.86 | 673.13
2000 kPa, x2 = 0.0524 | 850.2 | 839.05
2000 kPa, x2 = 0.1018 | 837.83 | 826.85
2000 kPa, x2 = 0.1968 | 815.38 | 804.68
2000 kPa, x2 = 0.3006 | 792.62 | 782.33
2000 kPa, x2 = 0.4029 | 771.9 | 761.96
2000 kPa, x2 = 0.5017 | 753.34 | 743.67
2000 kPa, x2 = 0.6008 | 736.05 | 726.67
2000 kPa, x2 = 0.7023 | 719.64 | 710.46
2000 kPa, x2 = 0.7977 | 705.19 | 696.31
2000 kPa, x2 = 0.8986 | 691.08 | 682.39
2000 kPa, x2 = 0.952 | 683.95 | 675.34
5000 kPa, x2 = 0.0524 | 853.75 | 842.87
5000 kPa, x2 = 0.1018 | 841.34 | 830.59
5000 kPa, x2 = 0.1968 | 818.82 | 808.31
5000 kPa, x2 = 0.3006 | 795.97 | 785.99
5000 kPa, x2 = 0.4029 | 775.25 | 765.53
5000 kPa, x2 = 0.5017 | 756.66 | 747.19
5000 kPa, x2 = 0.6008 | 739.33 | 730.09
5000 kPa, x2 = 0.7023 | 722.77 | 713.8
5000 kPa, x2 = 0.7977 | 708.3 | 699.58
5000 kPa, x2 = 0.8986 | 694.14 | 685.57
5000 kPa, x2 = 0.952 | 686.97 | 678.46
7000 kPa, x2 = 0.0524 | 856.02 | 845.3
7000 kPa, x2 = 0.1018 | 843.56 | 832.97
7000 kPa, x2 = 0.1968 | 820.99 | 810.78
7000 kPa, x2 = 0.3006 | 798.15 | 788.3
7000 kPa, x2 = 0.4029 | 777.41 | 767.84
7000 kPa, x2 = 0.5017 | 758.81 | 749.48
7000 kPa, x2 = 0.6008 | 741.44 | 732.35
7000 kPa, x2 = 0.7023 | 724.78 | 716.03
7000 kPa, x2 = 0.7977 | 710.27 | 701.8
7000 kPa, x2 = 0.8986 | 696.07 | 687.74
7000 kPa, x2 = 0.952 | 688.88 | 680.62
10000 kPa, x2 = 0.0524 | 859.35 | 848.77
10000 kPa, x2 = 0.1018 | 846.8 | 836.51
10000 kPa, x2 = 0.1968 | 824.17 | 814.23
10000 kPa, x2 = 0.3006 | 801.36 | 791.7
10000 kPa, x2 = 0.4029 | 780.55 | 771.16
10000 kPa, x2 = 0.5017 | 761.91 | 752.73
10000 kPa, x2 = 0.6008 | 744.48 | 735.56
10000 kPa, x2 = 0.7023 | 727.81 | 719.19
10000 kPa, x2 = 0.7977 | 713.22 | 704.84
10000 kPa, x2 = 0.8986 | 699 | 690.69
10000 kPa, x2 = 0.952 | 691.77 | 683.56
20000 kPa, x2 = 0.0524 | 869.52 | 859.69
20000 kPa, x2 = 0.1018 | 857 | 847.28
20000 kPa, x2 = 0.1968 | 834.1 | 824.81
20000 kPa, x2 = 0.3006 | 811.1 | 802.08
20000 kPa, x2 = 0.4029 | 790.07 | 781.34
20000 kPa, x2 = 0.5017 | 771.19 | –
20000 kPa, x2 = 0.6008 | 753.6 | –
20000 kPa, x2 = 0.7023 | 736.87 | –
20000 kPa, x2 = 0.7977 | 722.07 | –
20000 kPa, x2 = 0.8986 | 707.69 | –
20000 kPa, x2 = 0.952 | 700.38 | –
30000 kPa, x2 = 0.0524 | 878.79 | –
30000 kPa, x2 = 0.1018 | 866.11 | –
30000 kPa, x2 = 0.1968 | 843.05 | –
30000 kPa, x2 = 0.3006 | 819.96 | –
30000 kPa, x2 = 0.4029 | 798.75 | –
30000 kPa, x2 = 0.5017 | 779.74 | –
30000 kPa, x2 = 0.6008 | 761.98 | –
30000 kPa, x2 = 0.7023 | 745.03 | –
30000 kPa, x2 = 0.7977 | 730.14 | –
30000 kPa, x2 = 0.8986 | 715.59 | –
30000 kPa, x2 = 0.952 | 708.22 | –
40000 kPa, x2 = 0.0524 | 887.22 | –
40000 kPa, x2 = 0.1018 | 874.41 | –
40000 kPa, x2 = 0.1968 | 851.38 | –
40000 kPa, x2 = 0.3006 | 827.93 | –
40000 kPa, x2 = 0.4029 | 806.62 | –
40000 kPa, x2 = 0.5017 | 787.49 | –
40000 kPa, x2 = 0.6008 | 769.55 | –
40000 kPa, x2 = 0.7023 | 752.43 | –
40000 kPa, x2 = 0.7977 | 737.42 | –
40000 kPa, x2 = 0.8986 | 722.69 | –
40000 kPa, x2 = 0.952 | 715.28 | –
50000 kPa, x2 = 0.0524 | 894.96 | –
50000 kPa, x2 = 0.1018 | 882.16 | –
50000 kPa, x2 = 0.1968 | 858.96 | –
50000 kPa, x2 = 0.3006 | 835.46 | –
50000 kPa, x2 = 0.4029 | 813.98 | –
50000 kPa, x2 = 0.5017 | 794.72 | –
50000 kPa, x2 = 0.6008 | 776.69 | –
50000 kPa, x2 = 0.7023 | 759.44 | –
50000 kPa, x2 = 0.7977 | 744.29 | –
50000 kPa, x2 = 0.8986 | 729.42 | –
50000 kPa, x2 = 0.952 | 721.96 | –
60000 kPa, x2 = 0.0524 | 902.31 | –
60000 kPa, x2 = 0.1018 | 889.34 | –
60000 kPa, x2 = 0.1968 | 866.09 | –
60000 kPa, x2 = 0.3006 | 842.43 | –
60000 kPa, x2 = 0.4029 | 820.82 | –
60000 kPa, x2 = 0.5017 | 801.47 | –
60000 kPa, x2 = 0.6008 | 783.34 | –
60000 kPa, x2 = 0.7023 | 766 | –
60000 kPa, x2 = 0.7977 | 750.71 | –
60000 kPa, x2 = 0.8986 | 735.66 | –
60000 kPa, x2 = 0.952 | 728.17 | –
65000 kPa, x2 = 0.0524 | 905.77 | –
65000 kPa, x2 = 0.1018 | 892.87 | –
65000 kPa, x2 = 0.1968 | 869.57 | –
65000 kPa, x2 = 0.3006 | 845.82 | –
65000 kPa, x2 = 0.4029 | 824.21 | –
65000 kPa, x2 = 0.5017 | 804.75 | –
65000 kPa, x2 = 0.6008 | 786.56 | –
65000 kPa, x2 = 0.7023 | 769.12 | –
65000 kPa, x2 = 0.7977 | 753.9 | –
65000 kPa, x2 = 0.8986 | 738.65 | –
65000 kPa, x2 = 0.952 | 731.1 | –
